In patent US5583020A, “Permeability enhancers for negatively charged polynucleotides” (Ribozyme Pharmaceuticals, Inc., priority 1993, dated 1996):
Where two headings read alike, the source gives them in different places.

Legend:
[1] = Diffusion of 32P-ribozyme across a liposome membrane (liposome-associated radioactivity); type: in vitro ADME
Description: The ribozyme was a 36 mer containing five 2'-O-methyl riboses at the 5' end and the 3' end. The ratio of permeability enhancer molecules per mole of phosphate was about 20:1.

[2] = not told
Procedure: Specifically, twenty μg of ^32 P radiolabeled ribozyme (1.68×10^-9 moles) was incubated with 1.2×10^-6 moles of permeability enhancer in 50 μl of water to give a pH of about 4. Incubation was carried out at 25° C. for 15 minutes. After the incubation, 1×10^-11 moles of dioleoylphosphatidylcholine liposomes was added to the 50 μl solution. The solution was diluted to 100 μl with 20 mM HEPES (pH 7.4) and centrifuged in a microfuge for 5 minutes to pellet the liposomes. The supernatant was removed and the lipid pellets were washed with 100 μl of 20 mM HEPES (pH 7.4). The lipid pellets were solubilized in 1% Triton X-100 and the amount of radioactivity associated with the lipid pellets was measured. The amount of associated radioactivity reflects the amount of diffusion across the liposome membrane.
A titration of the permeability enhancer to ribozyme was performed by holding the amount of ribozyme constant and increasing the molar charge ratio of the permeability enhancer (aminocaprylic acid) to ribozyme. The experiment was carried out as described above using different amounts of enhancer.

HeLa cells = test: Diffusion of 32P-ribozyme into HeLa cells (cell associated radioactivity); type: cell-based; conditions: 20 molecules enhancer per mole of ribozyme phosphate; pH about 4, diluted in DMEM without serum; 1 hour at 37° C., 5% CO2
Procedure: This example illustrates the ability of an enhancer to facilitate the diffusion of a ribozyme into HeLa cells. […] The sample was diluted up to 1 ml with DMEM media containing no serum and added to HeLa cells. A control was run containing ^32 P-ribozyme without enhancer. Cells were incubated for 1 hour at 37° C. in 5% CO2. The cells were washed 3 times with serum free media and solubilized with 0.5 ml of 1% triton.

[3] = ratio of permeability enhancer per mole of phosphate about 20:1, pH about 4, 25° C., 15 minutes, 32P ribozyme (36 mer)

Row | % Liposome Associated [1] [%] | SMILES | % Liposome Associated [1, 3] [%] | also measured
1 | 0.53 | NCCCC(=O)O [Aminobutyric Acid] |  | 
2 |  | NCCCCCC(=O)O [Aminocaproic Acid] | 0.70 | 
3 |  | NCC(=O)O [glycine] | 0.55 | 
4 |  | NCCCCCCCC(=O)O [Aminocaprylic Acid] | 9.54 | membrane association on increasing the ratio of enhancer to ribozyme (in words) [2]: concomitant increase in membrane association; degree of membrane association (in words) ([1]; ribozyme, enhancer to phosphate about 20:1): highest degree of membrane association; amount of cell associated radioactivity, enhancer:ribozyme versus ribozyme alone (HeLa cells): 3 fold
5 | 2.54 | Nc1cccc(C(=O)O)c1 [m-Aminobenzoic Acid] |  | 

Row | SMILES | % Liposome Associated [1] [%] | % Liposome Associated [1, 3] [%] | also measured
6 | O=C(O)/C=C/c1c[nH]cn1 [Urocanic Acid] | 0.95 |  | 
